Our source for the EC50 values is patent US8912220B2 (priority 2009, dated 2014).

This assay deals with human 5-HT2C(VSV) (Homo sapiens, UniProt P28335, I156V/I160V/N158S). Briefly: cell-based.
Chain of human 5-HT2C(VSV) (P28335 33-458 I156V/N158S/I160V limits assumed): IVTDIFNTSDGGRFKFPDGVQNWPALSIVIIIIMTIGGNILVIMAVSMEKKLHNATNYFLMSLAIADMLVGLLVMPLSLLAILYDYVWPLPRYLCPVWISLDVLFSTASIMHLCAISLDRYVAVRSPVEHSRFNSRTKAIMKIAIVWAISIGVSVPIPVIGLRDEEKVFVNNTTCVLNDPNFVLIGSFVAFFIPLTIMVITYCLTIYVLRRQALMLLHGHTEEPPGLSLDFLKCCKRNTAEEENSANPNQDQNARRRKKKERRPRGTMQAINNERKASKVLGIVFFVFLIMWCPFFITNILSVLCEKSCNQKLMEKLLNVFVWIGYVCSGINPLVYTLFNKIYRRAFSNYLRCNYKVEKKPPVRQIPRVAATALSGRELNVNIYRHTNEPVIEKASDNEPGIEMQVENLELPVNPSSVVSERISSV
`CCOc1c(F)ccc2c1c(CCNCCc1ccccn1)cn2C` [30-27, 2-(4-ethoxy-5-fluoro-1-methyl-1H-indol-3-yl)-N-(2-(pyridin-2-yl)ethyl)ethanamine] returned an EC50 of 1 to 500 nM. As for `CNCCc1cn(C)c2ccc(F)c(OCc3ccc(C)cc3)c12` [33-27, 2-(5-fluoro-1-methyl-4-(4-methylbenzyloxy)-1H-indol-3-yl)-N-methylethanamine], the figure is 1 to 500 nM; as for `CNCCc1cn(C)c2ccc(F)c(OCc3cccc(Cl)c3)c12` [33-8, 2-(4-(3-chlorobenzyloxy)-5-fluoro-1-methyl-1H-indol-3-yl)-N-methylethanamine], 1 to 500 nM. Then `CCn1cc(CCN(C)C)c2c(OCc3ccsc3)cc(F)cc21` [1-19b, 2-(1-ethyl-6-fluoro-4-(thiophen-3-ylmethoxy)-1H-indol-3-yl)-N,N-dimethylethanamine], with 1 to 500 nM; and `COc1ccc(-c2cccnc2)c2c1c(CCN(C)C)cn2C` [6-14, 2-(4-methoxy-1-methyl-7-(pyridin-3-yl)-1H-indol-3-yl)-N,N-dimethylethanamine], with 1 to 500 nM; and `CCn1cc(CCN(C)C)c2c(OC)c(CCCO)cc(F)c21` [27-3, 3-(3-(2-(dimethylamino)ethyl)-1-ethyl-7-fluoro-4-methoxy-1H-indol-5-yl)propan-1-ol], with 1 to 500 nM. Then `CCn1cc(CCN2C[C@@H](C)O[C@@H](C)C2)c2c(O)cc(F)cc21` [11-13], with 500 to 10000 nM; and `CNCCc1cn(C)c2ccc(F)c(OC(C)c3ccccc3)c12` (stereo not drawn) [33-32, 2-(5-fluoro-1-methyl-4-(1-phenylethoxy)-1H-indol-3-yl)-N-methylethanamine], with 1 to 500 nM. `CCn1cc(CCN(C)C)c2c(OCc3ccc(C(F)(F)F)cc3)cc(F)cc21` [1-12b, 2-(1-ethyl-6-fluoro-4-(4-(trifluoromethyl)benzyloxy)-1H-indol-3-yl)-N,N-dimethylethanamine] had an EC50 of 500 to 10000 nM. Then `COc1ccc(-c2ccccc2)c2c1c(CCN(C)C)cn2C` [6-6, 2-(4-methoxy-1-methyl-7-phenyl-1H-indol-3-yl)-N,N-dimethylethanamine], with 1 to 500 nM. As to `COc1ccc(-c2ccoc2)c2c1c(CCN(C)C)cn2C` [6-9, 2-(7-(furan-3-yl)-4-methoxy-1-methyl-1H-indol-3-yl)-N,N-dimethylethanamine], the EC50 is 500 to 10000 nM. Then `CCOc1c(F)ccc2c1c(CCNCc1ccccc1)cn2C` [30-15, N-benzyl-2-(4-ethoxy-5-fluoro-1-methyl-1H-indol-3-yl)ethanamine], with 1 to 500 nM; and `CNCCc1cn(C)c2ccc(F)c(OCc3ccc(F)cc3)c12` [33-35, 2-(5-fluoro-4-(4-fluorobenzyloxy)-1-methyl-1H-indol-3-yl)-N-methylethanamine], with 1 to 500 nM; and `CCn1cc(CCNCCOC)c2c(O)cc(F)cc21` [11-11, 1-ethyl-6-fluoro-3-(2-(2-methoxyethylamino)ethyl)-1H-inol-4-ol], with 1 to 500 nM. On to `CN(C)CCc1cn(Cc2ccco2)c2c(F)ccc(OCc3ccccc3)c12` [24-1, 2-(4-(benzyloxy)-7-fluoro-1-(furan-2-ylmethyl)-1H-indol-3-yl)-N,N-dimethylethanamine], for which the EC50 was in the range of 1 to 500 nM. As for `CCn1cc(CCNCc2cccc(Cl)c2)c2c(OCc3ccccc3)cc(F)cc21` [31-9, 2-(4-(benzyloxy)-1-ethyl-6-fluoro-1H-indol-3-yl)-N-(3-chlorobenzyl)ethanamine], the EC50 lay within 500 to 10000 nM. As for `CCn1cc(CCN(C)C)c2c(OCc3ccc(OC(F)(F)F)cc3)cc(F)cc21` [1-11b, 2-(1-ethyl-6-fluoro-4-(4-(trifluoromethoxy)benzyloxy)-1H-indol-3-yl)-N,N-dimethylethanamine], the figure is 500 to 10000 nM; as for `CCn1cc(C2=CCNCC2)c2c(OCc3ccccc3)cc(F)cc21` [37-2, 4-(benzyloxy)-1-ethyl-6-fluoro-3-(1,2,3,6-tetrahydropyridin-4-yl)-1H-indole], 500 to 10000 nM. As for `CNCCc1cn(C)c2ccc(F)c(OCc3cccc4ccccc34)c12` [33-36, 2-(5-fluoro-1-methyl-4-(naphthalen-1-ylmethoxy)-1H-indol-3-yl)-N-methylethanamine], the figure is 1 to 500 nM.

Consider `NCCc1cn(CCOc2ccccc2)c2ccc(F)c(O)c12` [19-4, 3-(2-aminoethyl)-5-fluoro-1-(2-phenoxyethyl)-1H-indol-4-ol], for which the EC50 lay in the range of 1 to 500 nM. Then `COc1ccc(F)c2c1c(C(C)CN)cn2C` (stereo not drawn) [9-5, 2-(7-fluoro-4-methoxy-1-methyl-1H-indol-3-yl)propan-1-amine], with 1 to 500 nM. Consider `Cn1cc(CCNCc2ccccc2)c2c(O)c(F)ccc21` [33-47, 3-(2-(benzylamino)ethyl)-5-fluoro-1-methyl-1H-indol-4-ol], for which the EC50 is 1 to 500 nM. Consider `COc1ccc(CCCO)c2c1c(CCN(C)C)cn2C` [25-4, 3-(3-(2-(dimethylamino)ethyl)-4-methoxy-1-methyl-1H-indol-7-yl)propan-1-ol], for which the EC50 was 500 to 10000 nM. Then `CCn1cc(CCNCCc2ccccc2)c2c(OC)ccc(F)c21` [20-7, 2-(1-ethyl-7-fluoro-4-methoxy-1H-indol-3-yl)-N-phenethylethanamine], with 1 to 500 nM; and `COc1c(F)ccc2c1c(CCNCCCCc1ccccc1)cn2C` [17-13, N-(2-(5-fluoro-4-methoxy-1-methyl-1H-indol-3-yl)ethyl)-4-phenylbutan-1-amine], with 1 to 500 nM; and `CCn1cc(CCNCc2ccccc2)c2c(O)cc(F)cc21` [26-8, 3-(2-(benzylamino)ethyl)-1-ethyl-6-fluoro-1H-indol-4-ol], with 1 to 500 nM. Then `COc1ccc(S(=O)(=O)c2ccccc2)c2c1c(CCN(C)C)cn2C` [25-1, 2-(4-methoxy-1-methyl-7-(phenylsulfonyl)-1H-indol-3-yl)-N,N-dimethylethanamine], with 1 to 500 nM; and `COc1c(F)ccc2c1c(CCN1CCN(c3ccccc3)CC1)cn2C` [17-14, 5-fluoro-4-methoxy-1-methyl-3-(2-(4-phenylpiperazin-1-yl)ethyl)-1H-indole], with 500 to 10000 nM. On to `CN(C)CCc1cn(Cc2cccs2)c2c(F)ccc(OCc3ccccc3)c12` [7-4, 2-(4-(benzyloxy)-7-fluoro-1-(thiophen-2-ylmethyl)-1H-indol-3-yl)-N,N-dimethylethanamine], for which the EC50 was in the range of 1 to 500 nM.

Take `COc1ccc(F)c2c1c(CCN1CCOCC1)cn2C` [11-9, 4-(2-(7-fluoro-4-methoxy-1-methyl-1H-indol-3-yl)ethyl)morpholine]: the EC50 lay in the range of 1 to 500 nM. Compound `COc1c(F)ccc2c1c(CCN1CCc3ccc(Cl)cc3C(C)C1)cn2C` (stereo not drawn) [17-8, 8-chloro-3-(2-(5-fluoro-4-methoxy-1-methyl-1H-indol-3-yl)ethyl)-1-methyl-2,3,4,5-tetrahydro-1H-benzo[d]azepine] registered an EC50 of 1 to 500 nM. As for `CNCCc1cn(C)c2ccc(F)c(OCCc3ccc(F)cc3)c12` [33-28, 2-(5-fluoro-4-(4-fluorophenethoxy)-1-methyl-1H-indol-3-yl)-N-methylethanamine], the EC50 lay in the range of 1 to 500 nM.

`CCn1cc(CCNC(c2ccccc2)c2ccccc2)c2c(O)cc(F)cc21` [31-10, 3-(2-(benzhydrylamino)ethyl)-1-ethyl-6-fluoro-1H-indol-4-ol] yielded an EC50 of 1 to 500 nM.

For orientation: EC50 means the midpoint of the concentration-response curve. A low value points to greater potency.
